Laboratory results reported in patent publication US20130012432A1, “Peptides for Treatment of Obesity” (Novo Nordisk A/S, priority 2010, published 2013).
Values after ≈ are worked out from the molar mass of the structure shown. Positions of bridges follow the written chain, without caps; N, C: chain ends. Non-standard residues stand in square brackets, D forms with d. Residues, ends and D or L forms follow the SMILES beside them. Groups on a side chain read outwards from the residue. ξ: configuration not given here. *: point of attachment. Palmitoyl(16-(5-tetrazolyl)) = O=C(CCCCCCCCCCCCCCCc1nnn[nH]1)*; Lys(CH2CO2H)2 = N[C@@H](CCCCN(CC(=O)O)CC(=O)O)C(=O)O; C17 diacid = O=C(O)CCCCCCCCCCCCCCCC(=O)*; C16 diacid = O=C(O)CCCCCCCCCCCCCCC(=O)*; ξH = NC(Cc1c[nH]cn1)C(=O)O; hCys = N[C@@H](CCS)C(=O)O; Orn = NCCC[C@H](N)C(=O)O; Dab = NCC[C@H](N)C(=O)O; AEEA = NCCOCCOCC(=O)O; ξK = NCCCCC(N)C(=O)O

Columns and labels:
physchem = experiment: physchem
Description: From a stock solution in vehicle, either H2O or 10 mM phosphate, containing 1 mg (as weighed) compound per ml, 8-11 aliquots are withdrawn and pH-adjusted individually with HCl/NaOH, to cover the whole pH range.

MC1 receptor = MC1 receptor (Homo sapiens, UniProt Q01726); experiment: biochemical
Sequence of MC1 receptor (Q01726 whole entry): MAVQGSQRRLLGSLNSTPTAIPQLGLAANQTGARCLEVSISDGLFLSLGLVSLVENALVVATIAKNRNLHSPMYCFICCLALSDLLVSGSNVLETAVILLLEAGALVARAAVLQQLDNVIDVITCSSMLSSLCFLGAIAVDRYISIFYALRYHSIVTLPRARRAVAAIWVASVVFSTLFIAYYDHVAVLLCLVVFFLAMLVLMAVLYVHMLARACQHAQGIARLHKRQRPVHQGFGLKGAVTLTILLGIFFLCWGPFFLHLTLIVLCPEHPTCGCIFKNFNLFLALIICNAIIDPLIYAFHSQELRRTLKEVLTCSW
Description: Assay (IV)—Melanocortin Receptor 1 (MC1) Binding Assay
The MC1 receptor binding assay was performed on BHK cell membranes stably expressing the MC1 receptor. The assay was performed in a total volume of 250 μl: 25 μl of ^125NDP-α-MSH (22 pM in final concentration), 25 μl of test compound/control and 200 μl of cell membrane (25 μg/ml). Test compounds were dissolved in DMSO. Radioactively labeled ligand, membranes and test compounds were diluted in buffer: 25 mM HEPES, pH 7.4, 0.1 mM CaCl2, 1 mM MgSO4, 1 mM EDTA, 0.1% HSA and 0.005% Tween™ 20. Alternatively, HSA may be substituted with ovalbumin. The samples were incubated at 30° C. for 90 min. in Costar round-bottom microtiter plates. Incubation was terminated by filtration on a Packard harvester filtermate. Rapid filtration through Packard Unifilter-96 GF/B filters pre-treated with polyetylenimine (PerkinElmer 6005277). The filters were washed with ice-cold 0.9% NaCl 8-10 times. The plates were air-dried at app. 55° C. for 30 min, and 50 μl Microscint 0 (Packard, cat. No. 6013616) was added to each well. The plates were counted in a Topcounter (1 min/well).
The data were analysed by non-linear regression analysis of binding curves, using the Windows™ program GraphPad™ Prism (GraphPad Software, USA).

| Structure (SMILES) | solubility (physchem; pH 7.5, Solubility Conc.) [µM] | solubility (physchem; pH 8, Solubility Conc.) [µM] | Ki (MC1 receptor) [µM] | solubility (physchem; pH 6.3, Solubility Conc.) [µM] | solubility (physchem; pH 6.4, Solubility Conc.) [µM] | solubility (physchem; pH 6.7, Solubility Conc.) [µM] | solubility (physchem; pH 7, Solubility Conc.) [µM] | solubility (physchem; pH 7.3, Solubility Conc.) [µM] | solubility (physchem; pH 7.6, Solubility Conc.) [µM] | solubility (physchem; pH 6.6, Solubility Conc.) [µM] | solubility (physchem; pH 7.4, Solubility Conc.) [µM] | further results |
| --- | --- | --- | --- | --- | --- | --- | --- | --- | --- | --- | --- | --- |
| CC(=O)N[C@H]1CCSSC[C@@H](C(=O)N2CCC[C@H]2C(=O)N2CCC[C@H]2C(=O)N[C@@H](CO)C(=O)N[C@@H](CCC(=O)O)C(=O)N[C@@H](CCCCN(CC(=O)O)CC(=O)O)C(=O)N[C@@H](CCCCNC(=O)COCCOCCNC(=O)CCCCCCCCCCCCCCC(=O)O)C(N)=O)NC(=O)[C@H](Cc2c[nH]c3ccccc23)NC(=O)[C@H](CCCNC(=N)N)NC(=O)[C@@H](Cc2ccccc2)NC(=O)[C@H](Cc2c[nH]cn2)NC1=O [Example 70, Ac-c[homoCys-His-D-Phe-Arg-Trp-Cys]-Pro-Pro-Ser-Glu-Lys(biscarboxymethyl)-Lys({2-[2-(15-carboxypentadecanoylamino)ethoxy]ethoxy}acetyl)-NH2] (Ac-[hCys]H[dF]RWCPPSE[Lys(CH2CO2H)2]K([AEEA-C16 diacid])-NH2; disulfide 1-6) | 444 (≈ 933 µg/mL) | 440 (≈ 924 µg/mL) | > 10 | – | – | – | – | – | – | – | – | solubility (physchem; pH 3.4, Solubility Conc.): 190 µM (≈ 399 µg/mL); solubility (physchem; pH 3.9, Solubility Conc.): 65 µM (≈ 137 µg/mL); solubility (physchem; pH 4.4, Solubility Conc.): 40 µM (≈ 84 µg/mL); solubility (physchem; pH 5.5, Solubility Conc.): 59 µM (≈ 124 µg/mL); solubility (physchem; pH 5.6, Solubility Conc.): 142 µM (≈ 298 µg/mL); solubility (physchem; pH 5.8, Solubility Conc.): 210 µM (≈ 441 µg/mL); solubility (physchem; pH 6.1, Solubility Conc.): 429 µM (≈ 901 µg/mL); solubility (physchem; pH 7.8, Solubility Conc.): 463 µM (≈ 973 µg/mL) |
| CC(=O)N[C@H]1CCCNC(=O)CC[C@@H](C(=O)N2CCC[C@H]2C(=O)N[C@@H](CO)C(=O)N[C@@H](CCCCN)C(=O)N[C@@H](CCC(=O)O)C(=O)N[C@@H](CCC(=O)O)C(=O)N[C@@H](CO)C(=O)N[C@@H](CO)C(=O)N[C@@H](CCC(=O)O)C(=O)N[C@@H](CCCCNC(=O)COCCOCCNC(=O)CCCCCCCCCCCCCCCC(=O)O)C(N)=O)NC(=O)[C@H](Cc2c[nH]c3ccccc23)NC(=O)[C@H](CCCNC(=N)N)NC(=O)[C@@H](Cc2ccccc2)NC(=O)[C@H](Cc2c[nH]cn2)NC1=O [Example 20] (Ac-[Orn]H[dF]RWEPSKEESSEK([AEEA-C17 diacid])-NH2; lactam 1-6) | – | – | > 10 | 399 (≈ 934 µg/mL) | 410 (≈ 960 µg/mL) | 416 (≈ 974 µg/mL) | 420 (≈ 983 µg/mL) | 433 (≈ 1010 µg/mL) | 429 (≈ 1000 µg/mL) | – | – | solubility (physchem; pH 6, Solubility Conc.): 192 µM (≈ 449 µg/mL); solubility (physchem; pH 7.9, Solubility Conc.): 398 µM (≈ 932 µg/mL); solubility (physchem; pH 8.2, Solubility Conc.): 439 µM (≈ 1030 µg/mL) |
| CC(=O)N[C@H]1CCNC(=O)C[C@@H](C(=O)N2CCC[C@H]2C(=O)N2CCC[C@H]2C(=O)N[C@@H](Cc2c[nH]cn2)C(=O)N[C@@H](CCC(=O)O)C(=O)N[C@@H](CCCCN(CC(=O)O)CC(=O)O)C(=O)N[C@@H](CCCCNC(=O)COCCOCCNC(=O)CCCCCCCCCCCCCCCc2nnn[nH]2)C(N)=O)NC(=O)[C@H](Cc2c[nH]c3ccccc23)NC(=O)[C@H](CCCNC(=N)N)NC(=O)[C@@H](Cc2ccccc2)NC(=O)[C@H](Cc2c[nH]cn2)NC1=O [Example 33, Ac-c[Dab-His-D-Phe-Arg-Trp-Asp]-Pro-Pro-His-Glu-Lys(biscarboxymethyl)-Lys[(2-{2-[16-(tetrazol-5-yl)hexadecanoylamino]ethoxy}ethoxy)acetyl]-NH2] (Ac-[Dab]H[dF]RWDPPHE[Lys(CH2CO2H)2]K([AEEA-Palmitoyl(16-(5-tetrazolyl))])-NH2; lactam 1-6) | 503 (≈ 1090 µg/mL) | – | > 10 | – | 122 (≈ 264 µg/mL) | 485 (≈ 1050 µg/mL) | – | 488 (≈ 1060 µg/mL) | – | 468 (≈ 1010 µg/mL) | – | solubility (physchem; pH 6.9, Solubility Conc.): 487 µM (≈ 1060 µg/mL); solubility (physchem; pH 7.8, Solubility Conc.): 489 µM (≈ 1060 µg/mL); solubility (physchem; pH 8.1, Solubility Conc.): 511 µM (≈ 1110 µg/mL); solubility (physchem; pH 8.6, Solubility Conc.): 473 µM (≈ 1030 µg/mL) |
| CC(=O)N[C@H]1CCCCNC(=O)CC[C@@H](C(=O)N2CCC[C@H]2C(=O)N2CCC[C@H]2C(=O)N[C@@H](Cc2c[nH]cn2)C(=O)N[C@@H](CCC(=O)O)C(=O)N[C@@H](CCCCN(CC(=O)O)CC(=O)O)C(=O)N[C@@H](CCCCNC(=O)COCCOCCNC(=O)CCCCCCCCCCCCCCCC(=O)O)C(N)=O)NC(=O)[C@H](Cc2c[nH]c3ccccc23)NC(=O)[C@H](CCCNC(=N)N)NC(=O)[C@@H](Cc2ccccc2)NC(=O)[C@H](Cc2c[nH]cn2)NC1=O [Example 7, Ac-c[Lys-His-D-Phe-Arg-Trp-Glu]-Pro-Pro-His-Glu-Lys(biscarboxymethyl)-Lys({2-[2-(16-carboxyhexadecanoylamino)ethoxy]ethoxy}acetyl)-NH2] (Ac-KH[dF]RWEPPHE[Lys(CH2CO2H)2]K([AEEA-C17 diacid])-NH2; lactam 1-6) | – | 436 (≈ 953 µg/mL) | > 10 | 173 (≈ 378 µg/mL) | – | 408 (≈ 892 µg/mL) | – | – | 448 (≈ 979 µg/mL) | 295 (≈ 645 µg/mL) | 438 (≈ 957 µg/mL) | solubility (physchem; pH 5.8, Solubility Conc.): 121 µM (≈ 264 µg/mL); solubility (physchem; pH 6.9, Solubility Conc.): 434 µM (≈ 949 µg/mL); solubility (physchem; pH 7.2, Solubility Conc.): 417 µM (≈ 911 µg/mL) |
| CC(=O)N[C@H]1CCCCNC(=O)C[C@@H](C(=O)N2CCC[C@H]2C(=O)N2CCC[C@H]2C(=O)N[C@@H](Cc2c[nH]cn2)C(=O)N[C@@H](CCC(=O)O)C(=O)N[C@@H](CCC(=O)O)C(=O)N[C@@H](CO)C(=O)N[C@@H](CO)C(=O)N[C@@H](CCC(=O)O)C(=O)N[C@@H](CCCCNC(=O)COCCOCCNC(=O)CCCCCCCCCCCCCCCC(=O)O)C(N)=O)NC(=O)[C@H](Cc2c[nH]c3ccccc23)NC(=O)[C@H](CCCNC(=N)N)NC(=O)[C@@H](Cc2ccccc2)NC(=O)[C@H](Cc2c[nH]cn2)NC1=O [Example 52] (Ac-KH[dF]RWDPPHEESSEK([AEEA-C17 diacid])-NH2; lactam 1-6) | 382 (≈ 901 µg/mL) | 391 (≈ 923 µg/mL) | > 10 | 339 (≈ 800 µg/mL) | – | 376 (≈ 887 µg/mL) | 372 (≈ 878 µg/mL) | 378 (≈ 892 µg/mL) | 381 (≈ 899 µg/mL) | – | – | solubility (physchem; pH 6.1, Solubility Conc.): 169 µM (≈ 399 µg/mL); solubility (physchem; pH 8.3, Solubility Conc.): 390 µM (≈ 920 µg/mL) |
| CC(=O)N[C@H]1CCCNC(=O)C[C@@H](C(=O)N2CCC[C@H]2C(=O)N[C@@H](CO)C(=O)NC(CCCCN)C(=O)N[C@@H](CCC(=O)O)C(=O)N[C@@H](CCC(=O)O)C(=O)N[C@@H](CO)C(=O)N[C@@H](CO)C(=O)N[C@@H](CCCCNC(=O)COCCOCCNC(=O)CCCCCCCCCCCCCCCC(=O)O)C(N)=O)NC(=O)CNC(=O)[C@H](Cc2c[nH]c3ccccc23)NC(=O)[C@H](CCCNC(=N)N)NC(=O)[C@@H](Cc2ccccc2)NC(=O)C(Cc2c[nH]cn2)NC(=O)[C@H](CCC(=O)O)NC1=O (some centres unmarked) [Example 40] (Ac-[Orn]E[ξH][dF]RWGDPS[ξK]EESSK([AEEA-C17 diacid])-NH2; lactam 1-8) | – | 488 (≈ 1160 µg/mL) | > 10 | 501 (≈ 1190 µg/mL) | – | 493 (≈ 1180 µg/mL) | 505 (≈ 1200 µg/mL) | – | 489 (≈ 1170 µg/mL) | – | 499 (≈ 1190 µg/mL) | solubility (physchem; pH 5.9, Solubility Conc.): 266 µM (≈ 634 µg/mL); solubility (physchem; pH 6.5, Solubility Conc.): 512 µM (≈ 1220 µg/mL); solubility (physchem; pH 8.2, Solubility Conc.): 503 µM (≈ 1200 µg/mL) |
| CC(=O)N[C@H]1CCCNC(=O)C[C@@H](C(=O)N2CCC[C@H]2C(=O)N2CCC[C@H]2C(=O)N[C@@H](Cc2c[nH]cn2)C(=O)N[C@@H](CCC(=O)O)C(=O)N[C@@H](CCCCN(CC(=O)O)CC(=O)O)C(=O)N[C@@H](CCCCNC(=O)COCCOCCNC(=O)CCCCCCCCCCCCCCCc2nnn[nH]2)C(N)=O)NC(=O)[C@H](Cc2c[nH]c3ccccc23)NC(=O)[C@H](CCCNC(=N)N)NC(=O)[C@@H](Cc2ccccc2)NC(=O)[C@H](Cc2c[nH]cn2)NC1=O [Example 10, Ac-c[Orn-His-D-Phe-Arg-Trp-Asp]-Pro-Pro-His-Glu-Lys(biscarboxymethyl)-Lys[(2-{2-[16-(tetrazol-5-yl)hexadecanoylamino]ethoxy}ethoxy)acetyl]-NH2] (Ac-[Orn]H[dF]RWDPPHE[Lys(CH2CO2H)2]K([AEEA-Palmitoyl(16-(5-tetrazolyl))])-NH2; lactam 1-6) | – | 531 (≈ 1160 µg/mL) | > 10 | – | 88 (≈ 192 µg/mL) | 514 (≈ 1120 µg/mL) | 517 (≈ 1130 µg/mL) | 517 (≈ 1130 µg/mL) | – | 287 (≈ 626 µg/mL) | 516 (≈ 1130 µg/mL) | solubility (physchem; pH 6, Solubility Conc.): 35 µM (≈ 76.4 µg/mL); solubility (physchem; pH 7.7, Solubility Conc.): 521 µM (≈ 1140 µg/mL) |
